Columns and labels:
[1] = tested on: E. coli TESEC Mtb Alr; assay: growth (OD600 after 10 h, mean); higher = more growth;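 also: E. coli lacking its native Alr, complemented by codon-optimized Mtb Alr under a feedback-controlled arabinose-inducible plasmid circuit, grown in defined medium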
Experimental: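 TESEC Mtb Alr E. coli grown in a two-dimensional dilution series of drug (µM) and arabinose (12 to 1e8 nM). Growth is read as OD600 after 10 h; values are means of 3 biological replicates.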

[2] = tested on: ∆mdtI; assay: growth (OD600 after 24 h); higher = more growth
Experimental: (§1)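 E. coli BW25113 ΔaraC (Efflux+) or efflux-pump deletion strains (ΔtolC ΔentC, ΔemrE, ΔmdtI, ΔyeeO, ΔmdtK, ΔmdtM) diluted 1:100 in M9-based medium with a drug dilution series. Growth is read as OD600 after 24 h; 3 biological replicates.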

[3] = tested on: ∆yeeO; assay: growth (OD600 after 24 h); higher = more growth
Experimental: as §1

[4] = tested on: ∆tolC ∆entC; assay: growth (OD600 after 24 h); higher = more growth
Experimental: as §1

[5] = tested on: Efflux+; assay: growth (OD600 after 24 h); higher = more growth
Experimental: as §1

[6] = tested on: ∆emrE; assay: growth (OD600 after 24 h); higher = more growth
Experimental: as §1

[7] = tested on: ∆mdtM; assay: growth (OD600 after 24 h); higher = more growth
Experimental: as §1

[8] = tested on: ∆mdtK; assay: growth (OD600 after 24 h); higher = more growth
Experimental: as §1

[9] = tested on: E. coli wild-type control; assay: growth (OD600 after 10 h); higher = more growth
Experimental: (§2)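 Chemical-genetic validation profiles: TESEC strains (Mtb Asd or DapB, arabinose-inducible) or the wild-type control grown in a two-dimensional dilution series of drug (µM) and arabinose. Growth is read as OD600 after 10 h in triplicate.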

[10] = tested on: E. coli TESEC strain (Mtb target enzyme); assay: growth (OD600 after 10 h); higher = more growth
Experimental: as §2

CC(C)c1ccc2oc3nc(N)c(C(=O)O)cc3c(=O)c2c1 [Amlexanox]
growth, [1]
Settings | drug 15.62 µM | drug 31.25 µM | drug 62.5 µM | drug 125 µM | drug 250 µM
arabinose 12 nM | 0.4 | 0.356 | 0.319 | 0.272 | –
arabinose 24 nM | 0.391 | 0.357 | 0.317 | 0.266 | –
arabinose 48 nM | 0.385 | 0.352 | 0.318 | 0.261 | –
arabinose 95 nM | 0.382 | 0.348 | 0.31 | 0.265 | –
arabinose 191 nM | 0.377 | 0.349 | 0.319 | 0.262 | –
arabinose 381 nM | 0.378 | 0.346 | 0.309 | 0.259 | –
arabinose 763 nM | 0.382 | 0.348 | 0.305 | 0.261 | –
arabinose 1526 nM | 0.386 | 0.352 | 0.304 | 0.259 | 0.264
arabinose 3052 nM | 0.375 | 0.357 | 0.301 | 0.257 | 0.264
arabinose 6104 nM | 0.367 | 0.336 | 0.29 | 0.262 | 0.266
arabinose 12207 nM | 0.325 | 0.306 | 0.278 | 0.275 | 0.281
arabinose 24414 nM | 0.282 | 0.276 | 0.274 | 0.285 | –
arabinose 48828 nM | 0.264 | 0.266 | 0.28 | 0.295 | –
arabinose 97656 nM | 0.254 | 0.261 | 0.28 | 0.289 | –
arabinose 195312 nM | 0.268 | 0.273 | 0.291 | 0.284 | –
arabinose 390625 nM | 0.289 | 0.298 | 0.305 | 0.277 | –
arabinose 781250 nM | 0.31 | 0.317 | 0.304 | 0.268 | –
arabinose 1562500 nM | 0.312 | 0.313 | 0.297 | 0.265 | –
arabinose 3125000 nM | 0.307 | 0.302 | 0.292 | 0.259 | –
arabinose 6250000 nM | 0.301 | 0.297 | 0.286 | 0.255 | –
arabinose 12500000 nM | 0.302 | 0.293 | 0.284 | 0.248 | –
arabinose 25000000 nM | 0.298 | 0.299 | 0.282 | 0.235 | –
arabinose 50000000 nM | 0.286 | 0.282 | 0.259 | 0.213 | –
arabinose 100000000 nM | 0.216 | 0.212 | 0.216 | 0.16 | –

CN(Cc1cc(Br)cc(Br)c1N)C1CCCCC1 [Bromhexine]
growth
Settings | [2] | [3] | [4] | [5] | [6] | [7] | [8]
drug 3 µM | 1.04 | 0.897 | 0.894 | 1.027 | 0.992 | 0.825 | 0.772
drug 6.25 µM | 1.01 | 0.881 | 0.989 | 0.989 | 1.08 | 0.819 | 0.792
drug 12.5 µM | 0.992 | 0.881 | 0.94 | 0.974 | 1.06 | 0.805 | 0.762
drug 25 µM | 0.996 | 0.8876 | 0.564 | 0.9831 | 1.02 | 0.8363 | 0.737
drug 50 µM | 0.994 | 0.905 | 0.05317 | 1 | 1.02 | 0.8474 | 0.743
drug 100 µM | 0.9907 | 0.917 | 0.0597 | 0.998 | 1.04 | 0.8478 | 0.7706

CN(Cc1cc(Br)cc(Br)c1N)C1CCCCC1 [Bromhexine] (TESEC target enzyme: Mtb Asd)
growth
Settings | drug 0.3 µM | drug 0.8 µM | drug 1.7 µM | drug 3.9 µM | drug 8.8 µM | drug 19.8 µM | drug 44.4 µM
[9], arabinose 15560 nM | 0.134 | 0.163 | 0.156 | 0.16 | 0.172 | 0.162 | –
[9], arabinose 28008 nM | 0.149 | 0.159 | 0.162 | 0.172 | 0.164 | 0.1736 | –
[9], arabinose 50414 nM | 0.17 | 0.144 | 0.17 | 0.16 | 0.157 | 0.172 | –
[9], arabinose 90744 nM | 0.167 | 0.21 | 0.174 | 0.193 | 0.178 | 0.177 | –
[9], arabinose 163340 nM | 0.157 | 0.178 | 0.161 | 0.187 | 0.146 | 0.194 | –
[9], arabinose 294012 nM | 0.156 | 0.191 | 0.204 | 0.229 | 0.182 | 0.198 | –
[9], arabinose 529221 nM | 0.18 | 0.202 | 0.201 | 0.194 | 0.186 | 0.221 | –
[9], arabinose 952599 nM | 0.238 | 0.231 | 0.209 | 0.214 | 0.214 | 0.236 | 0.203
[9], arabinose 1714678 nM | 0.213 | 0.221 | 0.208 | 0.232 | 0.223 | 0.253 | 0.198
[9], arabinose 3086420 nM | 0.207 | 0.23 | 0.212 | 0.254 | 0.204 | 0.267 | 0.235
[9], arabinose 5555556 nM | 0.189 | 0.214 | 0.206 | 0.198 | 0.201 | 0.218 | 0.232
[9], arabinose 10000000 nM | 0.174 | 0.21 | 0.163 | 0.217 | 0.173 | 0.21 | –
[10], arabinose 15560 nM | 0.18 | 0.153 | – | – | – | – | –
[10], arabinose 28008 nM | 0.229 | 0.178 | – | – | – | – | –
[10], arabinose 50414 nM | 0.207 | 0.177 | – | – | – | – | –
[10], arabinose 90744 nM | 0.215 | 0.211 | – | – | – | – | –
[10], arabinose 163340 nM | 0.257 | 0.239 | – | – | – | – | –
[10], arabinose 294012 nM | 0.293 | 0.302 | – | – | – | – | –
[10], arabinose 529221 nM | 0.32 | 0.291 | – | – | – | – | –
[10], arabinose 952599 nM | 0.355 | 0.368 | – | – | – | – | –
[10], arabinose 1714678 nM | 0.336 | 0.387 | – | – | – | – | –
[10], arabinose 3086420 nM | 0.328 | 0.361 | – | – | – | – | –
[10], arabinose 5555556 nM | 0.321 | 0.333 | – | – | – | – | –
[10], arabinose 10000000 nM | 0.341 | 0.34 | – | – | – | – | –

N[C@@H]1CONC1=O [D-cycloserine]
growth, [1]
Settings | drug 7.81 µM | drug 15.62 µM | drug 31.25 µM | drug 62.5 µM | drug 125 µM
arabinose 12 nM | 0.367 | 0.327 | 0.0519 | 0.0505 | –
arabinose 24 nM | 0.363 | 0.325 | 0.0523 | 0.0512 | –
arabinose 48 nM | 0.367 | 0.326 | 0.0519 | 0.0518 | –
arabinose 95 nM | 0.358 | 0.336 | 0.0543 | 0.0501 | –
arabinose 191 nM | 0.376 | 0.332 | 0.121 | 0.0494 | –
arabinose 381 nM | 0.373 | 0.348 | 0.254 | 0.05 | –
arabinose 763 nM | 0.382 | 0.365 | 0.305 | 0.0501 | –
arabinose 1526 nM | 0.38 | 0.373 | 0.349 | 0.131 | 0.0482
arabinose 3052 nM | 0.367 | 0.373 | 0.386 | 0.29 | 0.0489
arabinose 6104 nM | 0.357 | 0.356 | 0.411 | 0.348 | 0.0678
arabinose 12207 nM | 0.329 | 0.328 | 0.375 | 0.378 | 0.251
arabinose 24414 nM | 0.288 | 0.298 | 0.315 | 0.371 | –
arabinose 48828 nM | 0.285 | 0.291 | 0.29 | 0.341 | –
arabinose 97656 nM | 0.29 | 0.284 | 0.292 | 0.306 | –
arabinose 195312 nM | 0.306 | 0.3 | 0.311 | 0.31 | –
arabinose 390625 nM | 0.318 | 0.32 | 0.322 | 0.327 | –
arabinose 781250 nM | 0.307 | 0.304 | 0.312 | 0.32 | –
arabinose 1562500 nM | 0.282 | 0.283 | 0.29 | 0.294 | –
arabinose 3125000 nM | 0.269 | 0.264 | 0.272 | 0.276 | –
arabinose 6250000 nM | 0.253 | 0.247 | 0.25 | 0.252 | –
arabinose 12500000 nM | 0.237 | 0.234 | 0.248 | 0.239 | –
arabinose 25000000 nM | 0.225 | 0.229 | 0.227 | 0.231 | –
arabinose 50000000 nM | 0.195 | 0.204 | 0.199 | 0.204 | –
arabinose 100000000 nM | 0.154 | 0.163 | 0.16 | 0.16 | –
